Reference: paper PMC5039417, “Aberrant Glycosylation of Anchor-Optimized MUC1 Peptides Can Enhance Antigen Binding Affinity and Reverse Tolerance to Cytotoxic T Lymphocytes” (Biomolecules, 2016)
Values belong to the molecule of their own block, whether it stands above or below them. No end group written: not given here.

Assays:
HLA-A*0201 molecules = HLA-A*0201 molecules (Homo sapiens, UniProt P04439, D140Y/D185E/D98H/E176V/E277Q/G131W/G231S/I119V/I121R/I166T/I218V/L300P/L318F/N151K/N90K/P208A/P217A/Q86G/Q94H/R138H/R169H/T345S); test: Competitive peptide inhibition assay (F1-peptide displacement on T2 cells)
[1] = test system: MCF-7 cells (MUC1+, HLA-A*0201+); test: 51Cr-release assay, peptide-induced CTLs from normal donors; format: cell-based, human; settings: for % of Donors with at Least 30% Cell Kill: normal donors (n = 8), MCF-7 targets, 30% cell kill considered a response; for Lysis of MCF-7 cells by CTLs elicited with the peptide: 8 normal post-menopausal HLA-A*0201 women, E:T 100:1, 6 h, p = 0.008 vs negative control P11
[2] = test system: CD8+ T cells from HLA-A*0201 breast cancer patients; test: 3H-thymidine proliferation of T cells from breast cancer patients; format: cell-based, human; settings: 23 HLA-A*0201 breast cancer patients, DCs pulsed with 10 μg/mL peptide + IL-2, 5 days, vs no-peptide stimulated T cells
Experimental: CD8^+ T cells from the patients were incubated with irradiated autologous DCs pulsed with the various MUC1 peptides (10 μg/mL) plus IL-2 for 5 days and proliferation was assessed by measuring the ^3H-thymidine uptake. T cells from ~38% of the breast cancer patients responded to the selected MUC1 peptides (Figure 6).
Figure 6 T cells from ~38% of the HLA-A2^+ breast cancer patients regardless of their stage, ER/PR and HER2 status responded to the selected MUC1 peptides. 1 × 10^5 T cells were incubated with irradiated […] DCs pulsed with the various MUC1 peptides (10 μg/mL) + IL-2 for 5 days in complete media. Proliferation was assessed by measuring the ^3H-thymidine uptake and is reported as fold increase in counts per minute. The dotted line indicates the two-fold increase in proliferation.

[3] = test system: CD8+ T cells (IFNγ production); test: IFNγ ELISpot of peptide-induced CD8+ T cells; format: cell-based, human; settings: for IFNγ production by CD8+ T cells generated to the peptide: normal donors, two rounds of stimulation, 24 h on ELISpot plate
Experimental: Figure 5 Production of IFNγ by CD8^+ T cells was induced in response to MUC1 peptides. Following two rounds of stimulation, CD8^+ cells were maintained for 24 h on an ELISpot plate. Spot numbers were determined using computer assisted video image analysis by Zellnet Consulting Inc. There were no significance differences compared to the negative peptide (p > 0.05).
IFNγ ELISpot plates from Mabtech (Stockholm, Sweden) were used to detect IFNγ producing MUC1-specific CTLs. The assay was performed using the capture IFNγ antibody as recommended by the manufacturer. Day five post R2-stimulation, the CTLs were washed three times and 1 × 10^5 cells were transferred to the washed and blocked IFNγ ELISpot plates and incubated at 37 °C in a 5% CO2 incubator for 24 h. After incubation the plates were washed with PBS, incubated with alkaline phosphatase-conjugated IFNγ antibody at room temperature for two hours and then spots were detected with BCIP/NBT substrate. Spot numbers were determined using computer assisted video image analysis by Zellnet Consulting Inc. (Fort Lee, NJ, USA).

[4] = test system: MCF-7 cells (HLA-A*0201+, MUC1+); test: 51Cr-release assay, peptide-induced CTLs from breast cancer patients; format: cell-based, human; settings: for Lysis of MCF-7 cells by T cells from cancer samples: all three breast cancer patient samples, E:T 100:1
Source text: Figure 7 In vitro stimulation of T cells from HLA-A*0201^+ cancer patients (peri-menopausal) with anchor-optimized and/or glycosylated MUC1 peptides elicited strong CTL activity. (A) PBLs underwent two rounds of stimulation and sorted CD8^+ T cells were subjected to a ^51Cr-release assay. Targets were MCF-7 cells (HLA-A*0201^+, MUC1^+). Effector:target ratio was 100:1 and spontaneous release was less than 25% of complete lysis. The filled triangles designate normal individuals and the open triangles designate breast cancer patients. […] Following two rounds of stimulation, CD8^+ cells were maintained for 24 h on an ELISpot plate. Spot numbers were determined using computer assisted video image analysis by Zellnet Consulting Inc. (FortLee, NJ, USA). There was no evidence of a significance difference in spot numbers between cancer patients and healthy controls (Wilcoxon rank sum test; p > 0.05).
An optimized protocol for the generation of peptide-specific CTLs was developed that relied upon autologous DCs for stimulation. PBMCs (2 × 10^6 cells/mL of AIM V medium) were transferred to a 24-well plate and incubated for 2 h at 37 °C. Non-adherent lymphocytes were washed off with PBS and the adherent cells were cultured in X-VIVO medium containing GM-CSF (1000 U/mL) and IL-4 (1000 U/mL) to generate DCs. […] DCs were analyzed by flow cytometry for appropriate maturation markers. […] Five to seven days later, T cells were analyzed for cytolytic activity by ^51Cr-release assay and interferon gamma production by ELISPOT.
The lytic activity of the in vitro stimulated peptide-specific CTLs was measured by a standard six-hour ^51Cr-release assay. […] After incubation, 30 μL of supernatant was transferred onto LUMA plates (Perkin Elmer, Waltham, MA, USA) and radioactive ^51Cr release was measured in a Topcount Micro-scintillation Counter (Packard Biosciences, Shelton, CT, USA). […]

[5] = test system: Autologous DCs pulsed with MUC1 peptides; test: 51Cr-release assay against peptide-pulsed autologous DCs; format: cell-based, human; settings: four normal donors, DCs pulsed with 50 μg/mL peptide and PADRE 10 μg/mL, E:T 100:1
Experimental: Autologous DCs pulsed with various MUC1 peptides (50 μg/mL) and PADRE peptide (10 μg/mL) were used as targets. Effector:target ratio was 100:1 and spontaneous release was less than 15% of complete lysis. * p < 0.05 (Student’s t-test) compared to the negative peptide.
The lytic activity of the in vitro stimulated peptide-specific CTLs was measured by a standard six-hour ^51Cr-release assay. The target cells used were MCF-7 breast cancer cell lines which express MUC1^+ and HLA-A*0201, and MDA-MB-231 cells, which are MUC1 negative and express HLA-A*0201. All tumor targets were treated with IFNγ one-day prior to use to up-regulate class I surface expression. Autologous DCs pulsed with the recall peptides, other modified peptides and the native peptide were also used as targets to evaluate cross-reactivity of MUC1-specific CTLs. The targets were labeled with Na^51CrO4 (0.1 mCi/mL) for 2 h, washed 3 times with PBS and re-suspended in T cell medium to a concentration of 2 × 10^4 cells/mL. […] After incubation, 30 μL of supernatant was transferred onto LUMA plates (Perkin Elmer, Waltham, MA, USA) and radioactive ^51Cr release was measured in a Topcount Micro-scintillation Counter (Packard Biosciences, Shelton, CT, USA). Percent specific lysis was calculated according to the following formula: Percent specific lysis = (experimental cpms − spontaneous cpms)/(complete cpms − spontaneous cpms) × 100. […]

[6] = biological target: HLA-A*0201 molecules on T2 cells (Homo sapiens, UniProt P04439, D140Y/D185E/D98H/E176V/E277Q/G131W/G231S/I119V/I121R/I166T/I218V/L300P/L318F/N151K/N90K/P208A/P217A/Q86G/Q94H/R138H/R169H/T345S); test: MHC stabilization assay on T2 cells (fluorescence index); format: cell-based; settings: peptide 0–100 μg/mL, β2-microglobulin 1 μg/mL, 18 h 37 °C, BB7.2 antibody, flow cytometry
Experimental: Figure 1 MUC1 peptides (anchor-optimized and glycosylated) stabilized HLA-A*0201 molecules on T2 cells. Increasing amounts of the MUC1 peptides (0–100 μg/mL) and β2-microglobulin (1 μg/mL) were incubated with T2 cells for 18 h at 37 °C prior to staining with the HLA-A*0201 antibody (clone BB7.2, Pharmingen). Mean fluorescence intensity (MFI) was determined by flow cytometry and the fluorescence index (FI) was calculated from the formula: FI = (FS − FB)/(FT2 − FB) × 100 where FS is the MFI of the test peptides, FB is the non-peptide isotype antibody-stained control MFI, and FT2 is the non-peptide HLA-A*0201 antibody-stained control MFI.
Peptide binding to HLA-A*0201 was analyzed using TAP1- and TAP2-deficient T2 cells which express the HLA-A*0201 allele. […] Binding of the peptides was measured using flow cytometry for upregulation of HLA-A2 surface expression on the T2 cells. […] Mean fluorescence intensity (MFI) was determined and the fluorescence index (FI) was calculated from the formula: FI = (FS − FB)/(FT2 − FB) × 100 where FS is the MFI of the test peptides, FB is the no-peptide isotype antibody-stained control MFI, and FT2 is the no-peptide HLA-A2 antibody-stained control MFI [52].

Molecule: CC(C)C[C@H](NC(=O)[C@@H](N)CO)C(=O)N[C@@H](C)C(=O)N1CCC[C@H]1C(=O)N1CCC[C@H]1C(=O)N[C@H](C(=O)N[C@@H](Cc1c[nH]cn1)C(=O)N[C@@H](CC(N)=O)C(=O)N[C@H](C(=O)O)C(C)C)C(C)C [P15]
- IC50 (HLA-A*0201 molecules): 363 nM

Molecule: ALGSTAPPV [P9, unmodified native MUC1 degenerate TR peptide, reference compound]
- % of Donors with at Least 30% Cell Kill ([1]; E:T 100:1): 12.50%

- IC50 (HLA-A*0201 molecules): 11100 nM
Molecule: LLLLTVLTV [P5]

- Fold higher affinity than the known M1.1 and M1.2 MUC1 peptides (HLA-A*0201 molecules; discussion, '8- to 30-fold, respectively'): 8 fold
Molecule: SLAPT(Tn)VHNV [P4, glycosylated anchor-optimized MUC1 peptide]
- Patients responding with >2-fold increase in proliferation [2]: 10/23
- IFNγ production by CD8+ T cells generated to the peptide [3]: showed production of IFNγ
- Lysis of MCF-7 cells by T cells from cancer samples [4]: greater than 30%
- Lytic reactivity of CTLs against DCs pulsed with immunizing or native P1 peptide [5]: reacted against the native P1:STAPPVHNV
- Lysis of MCF-7 cells by CTLs elicited with the peptide [1]: significant lysis
- Percent of donors that will respond (lower limit of 95% CI) ([1]; based on considering 30% cell kill a response): at least 35%
- % of Donors with at Least 30% Cell Kill ([1]; E:T 100:1): 75%

- IC50 (HLA-A*0201 molecules): 441 nM
Molecule: SLSYTNPAV [P7]

- Binding to HLA-A*0201 on T2 cells by fluorescence index (FI) [6]: bound moderately
- IC50 (concentration producing 50% inhibition of F1-peptide binding) (HLA-A*0201 molecules; T2 cells, F1-peptide 100 ng/mL, β2-microglobulin 1 μg/mL, competitor 0–100 μg/mL, flow cytometry MFI, Prism): 10.13 µg/mL
Molecule: STAPPVHNV [P1, native MUC1 degenerate tandem repeat peptide]
- Patients responding with >2-fold increase in proliferation [2]: 8/23
- Affinity class of binder to HLA-A*0201 (HLA-A*0201 molecules; scored from IC50 in the competition assay on T2 cells): medium (“medium affinity binders” with IC50 of ≥to 5 μg/mL and <15 μg/mL)
- Lysis of MCF-7 cells by T cells from cancer samples [4]: greater than 30%
- Activation of lytic T cells from breast cancer patients ([4]; three breast cancer patients, MCF-7 targets): effectively activated lytic T cells from all three breast cancer patients
- Lysis of MCF-7 cells by CTLs elicited with the peptide [1]: did not elicit lytic T cells

Molecule: STAPT(Tn)VHNV [P2, Tn-glycosylated MUC1 peptide]
- IFNγ production by CTLs elicited by the peptide, one individual ([3]; CTLs from one normal individual): strong production of IFNγ
- IFNγ production by CD8+ T cells generated to the peptide [3]: showed production of IFNγ
- Lysis of MCF-7 cells by CTLs elicited with the peptide, one individual ([1]; CTLs from one normal individual, E:T 100:1): low lysis
